These results are taken from ChEMBL document CHEMBL4138198, “Synthesis of new 1-benzyl tetrahydropyridinylidene ammonium salts and their antimicrobial and anticellular activities” (Eur J Med Chem, 2018).

One data set deals with Plasmodium falciparum. Kind of data set: Antimalarial activity against erythrocytic stage of Plasmodium falciparum NF54 assessed as inhibition of [3H]-hypoxanthine incorporation after 48 hrs by liquid scintillation counting analysis. It is filed as functional, organism-based.
The test system of a further data set is L6. Kind of data set: Cytotoxicity against rat L6 cells after 70 hrs by Alamar blue staining-based fluorometric analysis. It is filed as cell-based. The conditions noted are these: L6, 70 h, read-out: IC50.
Data set [1] can be described thus: Selectivity index, ratio of IC50 for rat L6 cells to IC50 for erythrocytic stage of Plasmodium falciparum NF54. It counts as toxicity. The conditions noted are these: read-out: Ratio IC50.
Data set [2] relates to Trypanosoma brucei rhodesiense. Kind of data set: Antitrypanosomal activity against Trypanosoma brucei rhodesiense STIB900 bloodstream forms after 70 hrs by Alamar blue staining-based fluorometric analysis. It counts as functional, organism-based. The conditions noted are these: STIB900, 70 h.
Data set [3] in a line: Selectivity index, ratio of IC50 for rat L6 cells to IC50 for Trypanosoma brucei rhodesiense STIB900 bloodstream forms. It counts as toxicity. The conditions noted are these: read-out: Ratio IC50.
The test system of data set [4] is Plasmodium berghei. Description: Antiplasmodial activity against GFP expressing Plasmodium berghei ANKA infected in NMRI mouse assessed as reduction in parasitemia at 10 mg/kg, ip administered 4 hrs, 24 hrs, 48 hrs, 72 hrs post infection for 4 days and measured 72 hrs post infection by FACS analysis relative to control. Details: scale not given: the % may be the effect or the level left. It counts as functional.

Data set [5] concerns Plasmodium berghei. Description: Antiplasmodial activity against GFP expressing Plasmodium berghei ANKA infected in NMRI mouse assessed as mouse mean survival days at 10 mg/kg, ip administered 4 hrs, 24 hrs, 48 hrs, 72 hrs post infection for 4 days and measured 72 hrs post infection by FACS analysis (reference value: 4 days). It counts as functional.
Data set [6] is described as follows: Growth inhibition of human MRC5 cells at 140 uM after 72 hrs by XTT assay relative to control. It counts as cell-based. The conditions noted are these: read-out: GI.
Data set [7] relates to Mycolicibacterium smegmatis. Description: Antimycobacterial activity against Mycobacterium smegmatis ATCC 14468 after 72 hrs by MTT dye-based microbroth dilution assay. The conditions noted are these: ATCC 14468, 72 h. It counts as functional.
The next data set concerns Candida tropicalis. Description: Antimicrobial activity against Candida tropicalis ATCC 13803 assessed as zone of inhibition at 50 ug per disc after 48 hrs by disc diffusion assay. It counts as functional. The note with it: ATCC 13803, 48 h, read-out: DIZ.
For the next data set, the system named is Candida parapsilosis. Kind of data set: Antimicrobial activity against Candida parapsilosis ATCC 90018 assessed as zone of inhibition at 50 ug per disc after 48 hrs by disc diffusion assay. The note with it: Lodderomyces parapsilosis, ATCC 90018, 48 h; read-out: DIZ. It is filed as functional.
In the next data set the test system is Candida albicans. Kind of data set: Antimicrobial activity against Candida albicans ATCC 10231 assessed as zone of inhibition at 50 ug per disc after 48 hrs by disc diffusion assay. It is filed as functional. The note with it: ATCC 10231, 48 h, read-out: DIZ.
The subject of another data set is Klebsiella oxytoca. Kind of data set: Antimicrobial activity against Klebsiella oxytoca ATCC 8724 assessed as zone of inhibition at 50 ug per disc after 24 hrs by disc diffusion assay. It is filed as functional. The conditions noted are these: ATCC 8724, 24 h, read-out: DIZ.
Data set [8] relates to Staphylococcus epidermidis. Description: Antimicrobial activity against Staphylococcus epidermidis ATCC 12228 assessed as zone of inhibition at 50 ug per disc after 24 hrs by disc diffusion assay. It is filed as functional. The conditions noted are these: ATCC 12228, 24 h, read-out: DIZ.
The next data set concerns Staphylococcus aureus. Kind of data set: Antimicrobial activity against Staphylococcus aureus subsp. aureus ATCC 25923 assessed as zone of inhibition at 50 ug per disc after 24 hrs by disc diffusion assay. The conditions noted are these: ATCC 25923, 24 h, read-out: DIZ. It counts as functional.
The subject of the next data set is Pseudomonas aeruginosa. Kind of data set: Antimicrobial activity against Pseudomonas aeruginosa ATCC 27853 assessed as zone of inhibition at 50 ug per disc after 24 hrs by disc diffusion assay. It is filed as functional. The note with it: ATCC 27853, 24 h, read-out: DIZ.
The test system of another data set is Bacillus subtilis. Kind of data set: Antimicrobial activity against Bacillus subtilis subsp. subtilis ATCC 6051 assessed as zone of inhibition at 50 ug per disc after 24 hrs by disc diffusion assay. It is filed as functional. The conditions noted are these: subsp. subtilis ATCC 6051, 24 h, read-out: DIZ.
The test system of another data set is Escherichia coli. Kind of data set: Antimicrobial activity against Escherichia coli ATCC 25922 assessed as zone of inhibition at 50 ug per disc after 24 hrs by disc diffusion assay. It counts as functional. The conditions noted are these: ATCC 25922, 24 h, read-out: DIZ.
The nature of data set [9]: Growth inhibition of human MRC5 cells at 120 uM after 72 hrs by XTT assay relative to control. It counts as cell-based. The conditions noted are these: read-out: GI.
The test system of data set [10] is Plasmodium berghei. Kind of data set: Antiplasmodial activity against GFP expressing Plasmodium berghei ANKA infected in NMRI mouse assessed as reduction in parasitemia at 50 mg/kg, ip administered 4 hrs, 24 hrs, 48 hrs, 72 hrs post infection for 4 days and measured 72 hrs post infection by FACS analysis relative to control. It counts as functional. Details: scale not given: the % may be the effect or the level left.

For data set [11], the system named is Plasmodium berghei. Kind of data set: Antiplasmodial activity against GFP expressing Plasmodium berghei ANKA infected in NMRI mouse assessed as mouse mean survival days at 50 mg/kg, ip administered 4 hrs, 24 hrs, 48 hrs, 72 hrs post infection for 4 days and measured 72 hrs post infection by FACS analysis (reference value: 4 days). It is filed as functional.

Each structure is given as a SMILES string.

With `CC1(C)CC(=[N+]2CCCC2)C=CN1Cc1ccc2ccccc2n1.[Cl-]`, the IC50 in the data set with Plasmodium falciparum came out at 90 nM; in the data set on L6, 125 µM; in [2], 16.6 µM. The selectivity ratio amounted to 1390 in data set [1] and 7.53 in data set [3]. The Activity in the data set with Plasmodium berghei [4] is recorded as 0%. In addition, the MSD in the data set on Plasmodium berghei [5] turned out to be 3 days. Further, in [6], the inhibition at 72 h, 140 µM was 27 to 56%.

For the compound `CC1(C)CC(=[N+]2CCCC2)C=CN1Cc1ccc(C(F)(F)F)cc1.[Br-]`, the figures for the IC50 (with Plasmodium falciparum; in the data set on L6; in [2]) were 36 nM, 125 µM and 27.2 µM, respectively. Also, the figures for the selectivity ratio in [1] and in [3] were 3480 and 4.6, respectively. The Activity in the data set on Plasmodium berghei [4] is 54.2%. The MSD with Plasmodium berghei [5] amounted to 7 days. In data set [7], the MIC was found to be 64 µg/mL. For the same compound, the zone of inhibition at 50 µg/disc in the data set with Candida tropicalis worked out at 15 mm; in the data set with Candida parapsilosis, 0 mm; in the data set with Candida albicans, 15 mm; with Klebsiella oxytoca, 7 mm; in data set [8] it was 18 mm; in the data set with Staphylococcus aureus, 8 mm. The zone of inhibition at 50 µg/disc in the data set on Pseudomonas aeruginosa stood at 0 mm; with Bacillus subtilis, 10 mm; with Escherichia coli, 0 mm. Further, the inhibition at 72 h, 120 µM in [9] lay in the range of 27 to 56%.

On to `CC1(C)CC(=[N+]2CCCC2)C=CN1Cc1ccc([N+](=O)[O-])cc1.[Cl-]`, for which the IC50 was 100 nM in the data set on Plasmodium falciparum, more than 286 µM in the data set with L6 and 79.8 µM in data set [2]. The results for the selectivity ratio in data set [1] and in data set [3] were more than 2860 and more than 3.58, respectively. For the same compound, the MIC in [7] was not below 128 µg/mL. The zone of inhibition at 50 µg/disc in the data set with Candida tropicalis was determined as 13 mm; in the data set on Candida parapsilosis, 0 mm; in the data set with Candida albicans, 8 mm; with Klebsiella oxytoca, 7 mm; in data set [8], 7 mm; in the data set on Staphylococcus aureus, 0 mm. Further, the zone of inhibition at 50 µg/disc in the data set on Pseudomonas aeruginosa, in the data set on Bacillus subtilis and in the data set on Escherichia coli was 0 mm each time. Moreover, in the data set with Plasmodium berghei [10], the Activity is reported as 78.4%. The MSD with Plasmodium berghei [11] stood at 7 days.
